Assay results: ChEMBL document CHEMBL3879915, “Methods of inhibiting PRMT5” (2014)
pEC50, pIC50: −log10 of the molar value.

Columns and labels:
PRMT5/MEP50 complex = PRMT5/MEP50 complex (Homo sapiens, UniProt O14744); assay: Inhibition of recombinant human fetal brain FLAG-tagged PRMT5/full length human testis 6His-tagged MEP50 expressed in baculovirus infected insect Sf9 cells using human histone H4 (1 to 15 residues) as substrate preincubated for 30 mins followed by [3H]-SAM addition
[1] = target: Protein arginine N-methyltransferase 5 (Homo sapiens, UniProt O14744); assay: Inhibition of PRMT5 in human Z138 cells assessed as decrease in di-methyl arginine levels after 96 hrs by Western blot method; type: cell-based
Protein arginine N-methyltransferase 5, sequence (O14744 whole entry): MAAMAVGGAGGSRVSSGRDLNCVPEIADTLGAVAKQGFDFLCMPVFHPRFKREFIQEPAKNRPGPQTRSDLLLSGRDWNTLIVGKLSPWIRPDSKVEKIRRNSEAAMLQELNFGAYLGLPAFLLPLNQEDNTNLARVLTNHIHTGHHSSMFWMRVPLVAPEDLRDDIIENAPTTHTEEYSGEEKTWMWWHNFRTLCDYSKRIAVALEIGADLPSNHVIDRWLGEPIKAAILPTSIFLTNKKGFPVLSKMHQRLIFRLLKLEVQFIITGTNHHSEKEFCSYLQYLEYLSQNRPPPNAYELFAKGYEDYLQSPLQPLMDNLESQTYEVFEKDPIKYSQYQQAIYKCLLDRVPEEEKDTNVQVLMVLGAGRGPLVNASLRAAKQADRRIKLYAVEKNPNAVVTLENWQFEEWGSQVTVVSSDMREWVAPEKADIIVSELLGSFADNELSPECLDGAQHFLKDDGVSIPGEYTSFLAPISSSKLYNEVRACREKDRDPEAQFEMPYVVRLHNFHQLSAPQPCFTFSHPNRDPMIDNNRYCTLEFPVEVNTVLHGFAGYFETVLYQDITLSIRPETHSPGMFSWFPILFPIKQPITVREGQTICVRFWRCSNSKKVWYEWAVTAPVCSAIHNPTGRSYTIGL

[2] = Antiproliferative activity against human Z138 cells assessed as inhibition of cell viability after 5 days by Cell-Titer Glo assay; type: functional, cell-based; conditions: Z-138, 120 h

PRMT5/MEP50 complex, sequence (O14744 whole entry, the tested form may be a part): as the sequence (O14744 whole entry) above
PRMT5/MEP50 complex, sequence (Q9BQA1 whole entry, further chain, the tested form may be a part): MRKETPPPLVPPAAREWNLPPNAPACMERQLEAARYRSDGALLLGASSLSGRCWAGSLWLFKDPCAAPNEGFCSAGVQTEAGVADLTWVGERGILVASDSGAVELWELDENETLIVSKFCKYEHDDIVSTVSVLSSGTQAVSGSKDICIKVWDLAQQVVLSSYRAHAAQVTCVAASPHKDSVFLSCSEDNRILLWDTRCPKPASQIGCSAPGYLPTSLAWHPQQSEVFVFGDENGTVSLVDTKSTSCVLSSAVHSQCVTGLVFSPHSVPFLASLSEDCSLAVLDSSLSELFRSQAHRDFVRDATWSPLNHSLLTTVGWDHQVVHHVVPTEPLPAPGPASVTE

Compound	pIC50 (PRMT5/MEP50 complex)	pEC50 [1]	pEC50 [2]
CN1CCC(n2cnc3ccc(-c4ccnc(NCC(O)CN5CCc6ccccc6C5)c4)cc32)C1 (stereo unspecified)	> 7.00	6.00 to 7.00	5.00 to 6.00
CC(=O)Nc1cccc(-c2cccc(OCC(O)CN3CCc4ccccc4C3)c2)c1 (stereo unspecified)	6.00 to 7.00	6.00 to 7.00	< 4.70
O[C@@H](COc1cccc(-c2cccc3cccnc23)c1)CN1CCc2ccccc2C1	> 7.00	6.00 to 7.00	5.00 to 6.00
O=C(COc1ccccc1-c1cc[nH]n1)NC[C@H](O)CN1CCc2ccccc2C1	> 7.00	6.00 to 7.00	< 4.70
O=C1COc2ccc(-c3cccc(OCC(O)CN4CCc5ccccc5C4)c3)cc2N1 (stereo unspecified)	6.00 to 7.00	5.00 to 6.00	4.40 to 5.00
CC(=O)N1CCN(S(=O)(=O)c2ccccc2OCC(=O)NCC(O)CN2CCc3ccccc3C2)CC1 (stereo unspecified)	6.00 to 7.00	5.00 to 6.00	< 4.70
Cn1ncc2ccc(-c3cc(COCC(O)CN4CCc5ccccc5C4)on3)cc21 (stereo unspecified)	6.00 to 7.00	5.00 to 6.00	< 4.70
CC(=O)N1CCC(n2cnc3ccc(-c4ccnc(NCC(O)CN5CCc6ccccc6C5)c4)cc32)CC1 (stereo unspecified)	6.00 to 7.00	6.00 to 7.00	5.00 to 6.00
OC(COc1cccc(-c2cc(OC(F)(F)F)ccc2Cl)c1)CN1CCc2ccccc2C1 (stereo unspecified)	6.00 to 7.00	4.40 to 5.00	< 4.70
Cn1cnc2cc(-c3cccc(OCC(O)CN4CCc5ccccc5C4)c3)ccc21 (stereo unspecified)	6.00 to 7.00	6.00 to 7.00	4.40 to 5.00
COC(=O)c1cccc(-c2cccc(OCC(O)CN3CCc4ccccc4C3)c2)c1 (stereo unspecified)	6.00 to 7.00	< 4.70	< 4.70
Cn1ncc2cnc(-c3cccc(OCC(O)CN4CCc5ccccc5C4)c3)cc21 (stereo unspecified)	6.00 to 7.00	6.00 to 7.00	4.40 to 5.00
CS(=O)(=O)Nc1ccc(-c2cccc(OCC(O)CN3CCc4ccccc4C3)c2)cc1 (stereo unspecified)	6.00 to 7.00	5.00 to 6.00	4.40 to 5.00
OC(COc1cccc(-c2cc(C(F)(F)F)ccc2Cl)c1)CN1CCc2ccccc2C1 (stereo unspecified)	6.00 to 7.00	5.00 to 6.00	4.40 to 5.00
OC(COc1cccc(-c2cccc3[nH]cnc23)c1)CN1CCc2ccccc2C1 (stereo unspecified)	> 7.00	6.00 to 7.00	4.40 to 5.00
OC(CNc1cc(-c2ncc3ccn(C4CCNCC4)c3n2)ccn1)CN1CCc2ccccc2C1 (stereo unspecified)	> 7.00	> 7.00	6.00 to 7.00
OC(COc1cccc(-c2cccc3cccnc23)c1)CN1CCc2ccccc2C1 (stereo unspecified)	> 7.00	6.00 to 7.00	4.40 to 5.00
COc1cccc(-c2cccc(OCC(O)CN3CCc4ccccc4C3)c2)c1 (stereo unspecified)	6.00 to 7.00	5.00 to 6.00	4.40 to 5.00
CS(=O)(=O)c1ccccc1-c1cccc(OCC(O)CN2CCc3ccccc3C2)c1 (stereo unspecified)	6.00 to 7.00	5.00 to 6.00	< 4.70
OC(COc1cccc(-c2ccc(C(F)(F)F)cc2C(F)(F)F)c1)CN1CCc2ccccc2C1 (stereo unspecified)	6.00 to 7.00	4.40 to 5.00	< 4.70

Compound	pIC50 (PRMT5/MEP50 complex)	pEC50 [1]	pEC50 [2]
O=C(Cn1cnc2ccc(-c3cccc(OCC(O)CN4CCc5ccccc5C4)c3)cc21)N1CCOCC1 (stereo unspecified)	6.00 to 7.00	5.00 to 6.00	5.00 to 6.00
O=c1[nH]c2ccc(-c3cccc(OCC(O)CN4CCc5ccccc5C4)c3)cc2[nH]1 (stereo unspecified)	6.00 to 7.00	4.70 to 7.00	4.70 to 5.00
OC(COc1cccc(-c2ccc3ncn(C4CNC4)c3c2)c1)CN1CCc2ccccc2C1 (stereo unspecified)	6.00 to 7.00	5.00 to 6.00	5.00 to 6.00
OC(COc1cccc(-c2ccc3ncn(C4COC4)c3c2)c1)CN1CCc2ccccc2C1 (stereo unspecified)	> 7.00	6.00 to 7.00	4.40 to 5.00
Cn1cnc2ccc(-c3ccnc(NC[C@H](O)CN4CCc5ccccc5C4)c3)cc21	> 7.00	6.00 to 7.00	5.00 to 6.00
O=C1COc2ccccc2N1CC(O)CN1CCc2ccccc2C1 (stereo unspecified)	6.00 to 7.00	6.00 to 7.00	< 4.70
OC(COc1cccc(-c2ccc3nn[nH]c3c2)c1)CN1CCc2ccccc2C1 (stereo unspecified)	6.00 to 7.00	5.00 to 6.00	5.00 to 6.00
O=C(Cn1cnc2ccc(-c3cccc(OCC(O)CN4CCc5ccccc5C4)c3)cc21)N1CCCCC1 (stereo unspecified)	6.00 to 7.00	6.00 to 7.00	4.40 to 5.00
Cn1ccc(C(=O)Nc2cccc(OCC(O)CN3CCc4ccccc4C3)c2)n1 (stereo unspecified)	5.00 to 6.00	5.00 to 6.00	< 4.70
Cn1ncc2ccc(-c3ccnc(NCC(O)CN4CCc5ccccc5C4)c3)cc21 (stereo unspecified)	> 7.00	6.00 to 7.00	5.00 to 6.00
O=C(COc1cccc2ccccc12)NCC(O)CN1CCc2ccccc2C1 (stereo unspecified)	> 7.00	6.00 to 7.00	5.00 to 6.00
COc1ccc(-c2cccc(OCC(O)CN3CCc4ccccc4C3)c2)c(Cl)c1 (stereo unspecified)	6.00 to 7.00	5.00 to 6.00	4.40 to 5.00
Cn1cncc1C(=O)Nc1cccc(OC[C@H](O)CN2CCc3ccccc3C2)c1	6.00 to 7.00	6.00 to 7.00	4.40 to 5.00
O=C(Cn1cnc2ccc(-c3cccc(OCC(O)CN4CCc5ccccc5C4)c3)cc21)N1CCCC1 (stereo unspecified)	6.00 to 7.00	6.00 to 7.00	4.40 to 5.00
CC(=O)N1CCC(n2ccc3cnc(-c4ccnc(NCC(O)CN5CCc6ccccc6C5)c4)nc32)CC1 (stereo unspecified)	> 7.00	> 7.00	6.00 to 7.00
NC(=O)c1ccc(-c2cccc(OCC(O)CN3CCc4ccccc4C3)c2)cc1 (stereo unspecified)	6.00 to 7.00	5.00 to 6.00	< 4.70
CN(C)c1ncc(-c2cccc(OCC(O)CN3CCc4ccccc4C3)c2)cn1 (stereo unspecified)	6.00 to 7.00	5.00 to 6.00	4.40 to 5.00
Cn1cc2ccc(-c3cccc(NCC(O)CN4CCc5ccccc5C4)c3)nc2n1 (stereo unspecified)	> 7.00	6.00 to 7.00	4.40 to 5.00
O=C(c1ccc(Cn2nccc2-c2ccc(OCC(O)CN3CCc4ccccc4C3)cc2)cc1)N1CCCC1 (stereo unspecified)	6.00 to 7.00	5.00 to 6.00	4.40 to 5.00
OC(COc1cccc(-c2ccc(C(F)(F)F)cc2Cl)c1)CN1CCc2ccccc2C1 (stereo unspecified)	6.00 to 7.00	4.40 to 5.00	< 4.70

Now from value to compound, other results behind:

pIC50 (PRMT5/MEP50 complex)	pEC50 [1]	Compound	pEC50 [2]
> 7.00	6.00 to 7.00	CS(=O)(=O)Nc1cccc(OCC(=O)NCC(O)CN2CCc3ccccc3C2)c1 (stereo unspecified)	5.00 to 6.00
> 7.00	> 7.00	CC(=O)N1CCc2c(cccc2OCC(=O)NCC(O)CN2CCc3ccccc3C2)C1 (stereo unspecified)	5.00 to 6.00
> 7.00	6.00 to 7.00	Cn1ncc2ccc(OCC(=O)NCC(O)CN3CCc4ccccc4C3)cc21 (stereo unspecified)	5.00 to 6.00
> 7.00	> 7.00	O=C(NCC(O)CN1CCc2ccccc2C1)c1cccc(-c2ccncc2)c1 (stereo unspecified)	5.00 to 6.00
> 7.00	6.00 to 7.00	CN1CCCC(c2ccccc2OCC(=O)NCC(O)CN2CCc3ccccc3C2)C1 (stereo unspecified)	5.00 to 6.00
6.00 to 7.00	6.00 to 7.00	O=C(NCC(O)CN1CCc2ccccc2C1)c1ccccn1 (stereo unspecified)	< 4.70
> 7.00	> 7.00	Cn1nccc1-c1cccc(C(=O)NCC(O)CN2CCc3ccccc3C2)c1 (stereo unspecified)	5.00 to 6.00
> 7.00	6.00 to 7.00	CN(C)c1cccc(OCC(=O)NCC(O)CN2CCc3ccccc3C2)c1 (stereo unspecified)	5.00 to 6.00
> 7.00	6.00 to 7.00	O=C(COc1cccc2c1CNCC2)NCC(O)CN1CCc2ccccc2C1 (stereo unspecified)	4.30 to 5.00
> 7.00	6.00 to 7.00	COc1cccc(OCC(=O)NCC(O)CN2CCc3ccccc3C2)c1 (stereo unspecified)	5.00 to 6.00
> 7.00	6.00 to 7.00	O=C(NCC(O)CN1CCc2ccccc2C1)c1cccc(-c2cc[nH]n2)c1 (stereo unspecified)	5.00 to 6.00
> 7.00	6.00 to 7.00	O=C(NCC(O)CN1CCc2ccccc2C1)c1cccc(N2CCNCC2)c1 (stereo unspecified)	4.30 to 5.00
> 7.00	> 7.00	C[C@@H](Oc1cccc2cccnc12)C(=O)NC[C@H](O)CN1CCc2ccccc2C1	6.00 to 7.00
> 7.00	> 7.00	CN(C)c1ccccc1OCC(=O)NCC(O)CN1CCc2ccccc2C1 (stereo unspecified)	5.00 to 6.00
> 7.00	6.00 to 7.00	O=C(COc1ccccc1OCCN1CCOCC1)NC[C@H](O)CN1CCc2ccccc2C1	4.30 to 5.00
6.00 to 7.00	6.00 to 7.00	O=C(COc1ccccc1)NC[C@H](O)CN1CCc2ccccc2C1	4.30 to 5.00
> 7.00	6.00 to 7.00	CN1CCCC1c1cccc(C(=O)NCC(O)CN2CCc3ccccc3C2)c1 (stereo unspecified)	4.30 to 5.00
> 7.00	6.00 to 7.00	Cc1cccc(OCC(=O)NCC(O)CN2CCc3ccccc3C2)c1 (stereo unspecified)	5.00 to 6.00
6.00 to 7.00	6.00 to 7.00	CN(c1cccc(OCC(=O)NCC(O)CN2CCc3ccccc3C2)c1)S(C)(=O)=O (stereo unspecified)	< 4.70
5.00 to 6.00	5.00 to 6.00	O=C(CNc1ccccc1)NCC(O)CN1CCc2ccccc2C1 (stereo unspecified)	< 4.70
> 7.00	6.00 to 7.00	O=C(COc1ccccc1C1CCNCC1)NCC(O)CN1CCc2ccccc2C1 (stereo unspecified)	< 4.70
> 7.00	6.00 to 7.00	CN(C)CCOc1cccc(C(=O)NCC(O)CN2CCc3ccccc3C2)c1 (stereo unspecified)	4.30 to 5.00
6.00 to 7.00	6.00 to 7.00	Cn1cnc2cc(OCC(=O)NCC(O)CN3CCc4ccccc4C3)ccc21 (stereo unspecified)	4.30 to 5.00
5.00 to 6.00	5.00 to 6.00	O=C(COc1ccccc1C1CCNC1)NCC(O)CN1CCc2ccccc2C1 (stereo unspecified)	< 4.70
6.00 to 7.00	6.00 to 7.00	N#Cc1ccccc1OCC(=O)NCC(O)CN1CCc2ccccc2C1 (stereo unspecified)	4.30 to 5.00
> 7.00	> 7.00	O=C(NCC(O)CN1CCc2ccccc2C1)c1cccc(-c2ccccn2)c1 (stereo unspecified)	5.00 to 6.00
> 7.00	6.00 to 7.00	CN1CCN(c2ccccc2OCC(=O)NC[C@H](O)CN2CCc3ccccc3C2)CC1	5.00 to 6.00
